One assay concerns the target T1, eIF2B (Mus musculus, UniProt Q61749+Q99LD9).
T1 construct: gene Eif2b2; native endogenous complex in lysate of mouse embryonic fibroblasts; decamer of five subunits; with Translation initiation factor eIF2B subunit alpha; Translation initiation factor eIF2B subunit gamma; Translation initiation factor eIF2B subunit epsilon
The experiment in a line: GEF assay, Bodipy-FL-GDP release from eIF2, fluorescence. Format: biochemical. Conditions: activator; MEF lysate 0.1 mg/mL; 25 nM Bodipy-FL-GDP-loaded eIF2; 3 nM phospho-eIF2; 0.1 mM GDP; 25°C; homozygous R191H MEF lysate.

Another assay has as its target T2, 5-HT1A (h) (Homo sapiens, UniProt P08908).
T2 construct: gene HTR1A
The experiment in a line: biochemical. Further details: CEREP panel radioligand binding displacement, % inhibition of control specific binding by 10 uM 2BAct. Conditions: Type=Agonist radioligand; read-out: % inhibition of Control specific binding. Here is the method: (§1) Supplementary file elife-42940-supp1.xlsx: Supplementary file 1. (A) Binding of 2BAct at 10 μM to the CEREP panel of receptors/enzymes/ion channels. Compound binding was calculated as a % inhibition of the binding of a radioactively labeled ligand specific for each target. Results showing inhibition or stimulation higher than 50% are considered to represent significant effects of the test compound. (B) Pharmacokinetic data from 2BAct dosing in mice. (C) GO Biological Processes identified by enrichment analysis of RNA-seq data. (D) List of genes used for enrichment analysis of scRNA-seq data.

Another assay has as its target T3, CCK1(CCKA) (h) (Homo sapiens, UniProt P32238).
T3 construct: gene CCKAR
The experiment in a line: biochemical. The note with it: Type=Agonist radioligand; read-out: % inhibition of Control specific binding. Further details: CEREP panel radioligand binding displacement, % inhibition of control specific binding by 10 uM 2BAct. The protocol:
as §1

The target in a further assay is T4, D1 (h) (Homo sapiens, UniProt P21728).
T4 construct: gene DRD1
The experiment in a line: biochemical. Further details: CEREP panel radioligand binding displacement, % inhibition of control specific binding by 10 uM 2BAct. Conditions: Type=Antagonist radioligand; read-out: % inhibition of Control specific binding. Here is the method:
as §1

The target in the next assay is T5, EP2 (h) (Homo sapiens, UniProt P43116).
T5 construct: gene PTGER2
T5 sequence (P43116 whole entry): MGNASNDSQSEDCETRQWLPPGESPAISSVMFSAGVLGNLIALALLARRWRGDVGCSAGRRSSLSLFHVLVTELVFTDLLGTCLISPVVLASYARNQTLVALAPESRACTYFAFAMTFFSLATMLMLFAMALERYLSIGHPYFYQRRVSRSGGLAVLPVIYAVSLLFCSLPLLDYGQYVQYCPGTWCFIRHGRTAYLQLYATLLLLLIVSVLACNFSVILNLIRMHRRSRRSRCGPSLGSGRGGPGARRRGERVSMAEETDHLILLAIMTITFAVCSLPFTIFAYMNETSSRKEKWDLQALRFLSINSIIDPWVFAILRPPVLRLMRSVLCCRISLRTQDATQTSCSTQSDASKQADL
The experiment in a line: biochemical. More on the design: CEREP panel radioligand binding displacement, % inhibition of control specific binding by 10 uM 2BAct. Conditions: Type=Agonist radioligand; read-out: % inhibition of Control specific binding. Here is the method: as §1

A further assay addresses T6, GABA-A1 (h) (a1, b2, g2) (Homo sapiens, UniProt P14867+P18507+P47870).
T6 construct: gene GABRA1; a1, b2, g2
The assay is described as follows: biochemical. Further details: CEREP panel radioligand binding displacement, % inhibition of control specific binding by 10 uM 2BAct. The note with it: Type=Agonist radioligand; read-out: % inhibition of Control specific binding. The protocol:
as §1

In the next assay the target is T7, M5 (h) (Homo sapiens, UniProt P08912).
T7 construct: gene CHRM5
The experiment in a line: biochemical. More on the design: CEREP panel radioligand binding displacement, % inhibition of control specific binding by 10 uM 2BAct. Conditions: Type=Antagonist radioligand; read-out: % inhibition of Control specific binding. Here is the method:
as §1

In a further assay the target is T8, MT2 (ML1B) (h) (Homo sapiens, UniProt P49286).
T8 construct: gene MTNR1B
The assay is described as follows: biochemical. Further details: CEREP panel radioligand binding displacement, % inhibition of control specific binding by 10 uM 2BAct. The note with it: Type=Agonist radioligand; read-out: % inhibition of Control specific binding. Here is the method:
as §1

For another assay, the target named is PPARg (h) (Homo sapiens, UniProt P37231). The experiment in a line: biochemical. More on the design: CEREP panel radioligand binding displacement, % inhibition of control specific binding by 10 uM 2BAct. The note with it: Type=Agonist radioligand; read-out: % inhibition of Control specific binding. Here is the method: as §1
Chain of PPARg (h) (P37231 whole entry): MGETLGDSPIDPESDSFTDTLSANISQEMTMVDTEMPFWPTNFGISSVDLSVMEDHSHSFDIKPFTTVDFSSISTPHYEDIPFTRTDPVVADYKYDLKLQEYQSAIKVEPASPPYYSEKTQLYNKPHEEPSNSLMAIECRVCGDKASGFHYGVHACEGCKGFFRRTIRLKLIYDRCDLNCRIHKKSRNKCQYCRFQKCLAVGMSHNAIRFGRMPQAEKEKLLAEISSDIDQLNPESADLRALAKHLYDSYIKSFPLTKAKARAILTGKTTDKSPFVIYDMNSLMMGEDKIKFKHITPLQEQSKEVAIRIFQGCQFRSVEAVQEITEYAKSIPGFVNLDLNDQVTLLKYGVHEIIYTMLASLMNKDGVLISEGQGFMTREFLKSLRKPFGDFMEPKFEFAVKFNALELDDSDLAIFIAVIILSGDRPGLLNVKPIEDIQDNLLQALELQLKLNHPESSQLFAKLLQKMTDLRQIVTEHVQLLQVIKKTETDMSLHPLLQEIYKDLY
The target in the next assay is T9, UT (h) (Homo sapiens, UniProt Q9UKP6).
T9 construct: gene UTS2R
The assay is described as follows: biochemical. Further details: CEREP panel radioligand binding displacement, % inhibition of control specific binding by 10 uM 2BAct. Conditions: Type=Agonist radioligand; read-out: % inhibition of Control specific binding. Here is the method:
as §1

Another assay deals with T10, VPAC1 (VIP1) (h) (Homo sapiens, UniProt P32241).
T10 construct: gene VIPR1
T10 sequence (P32241 whole entry): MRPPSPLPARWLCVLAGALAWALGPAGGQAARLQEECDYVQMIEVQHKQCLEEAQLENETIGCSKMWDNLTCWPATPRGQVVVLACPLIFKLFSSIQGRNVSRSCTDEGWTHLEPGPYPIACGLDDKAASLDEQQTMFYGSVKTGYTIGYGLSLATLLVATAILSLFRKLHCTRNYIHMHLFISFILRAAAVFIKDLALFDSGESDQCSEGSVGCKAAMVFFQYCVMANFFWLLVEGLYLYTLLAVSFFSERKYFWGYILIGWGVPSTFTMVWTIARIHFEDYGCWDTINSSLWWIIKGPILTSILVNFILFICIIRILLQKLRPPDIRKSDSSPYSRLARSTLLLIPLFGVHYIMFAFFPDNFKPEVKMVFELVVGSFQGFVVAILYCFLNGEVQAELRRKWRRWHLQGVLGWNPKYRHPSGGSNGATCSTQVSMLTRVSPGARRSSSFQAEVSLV
The assay is described as follows: biochemical. More on the design: CEREP panel radioligand binding displacement, % inhibition of control specific binding by 10 uM 2BAct. Conditions: Type=Agonist radioligand; read-out: % inhibition of Control specific binding. Here is the method:
as §1

In the next assay the target is T11, Y1 (h) (Homo sapiens, UniProt P25929).
T11 construct: gene NPY1R
T11 sequence (P25929 whole entry): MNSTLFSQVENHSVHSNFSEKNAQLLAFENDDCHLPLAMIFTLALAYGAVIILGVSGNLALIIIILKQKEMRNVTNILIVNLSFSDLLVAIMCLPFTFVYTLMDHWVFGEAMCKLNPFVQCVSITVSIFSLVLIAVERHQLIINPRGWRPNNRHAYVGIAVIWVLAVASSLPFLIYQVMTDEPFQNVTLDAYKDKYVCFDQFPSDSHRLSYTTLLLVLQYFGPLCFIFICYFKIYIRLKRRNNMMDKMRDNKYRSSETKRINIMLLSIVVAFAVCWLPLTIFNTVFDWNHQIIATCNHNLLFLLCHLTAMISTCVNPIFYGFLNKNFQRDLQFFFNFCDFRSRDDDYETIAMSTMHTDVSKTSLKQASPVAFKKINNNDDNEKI
The experiment in a line: biochemical. More on the design: CEREP panel radioligand binding displacement, % inhibition of control specific binding by 10 uM 2BAct. The note with it: Type=Agonist radioligand; read-out: % inhibition of Control specific binding. Here is the method:
as §1

The next assay deals with T12, a2A (h) (Homo sapiens, UniProt P08913).
T12 construct: gene ADRA2A
The assay is described as follows: biochemical. More on the design: CEREP panel radioligand binding displacement, % inhibition of control specific binding by 10 uM 2BAct. Conditions: Type=Antagonist radioligand; read-out: % inhibition of Control specific binding. Here is the method:
as §1

The next assay has as its target T13, b2 (h) (Homo sapiens, UniProt P07550).
T13 construct: gene ADRB2
The assay is described as follows: biochemical. Further details: CEREP panel radioligand binding displacement, % inhibition of control specific binding by 10 uM 2BAct. Conditions: Type=Agonist radioligand; read-out: % inhibition of Control specific binding. Here is the method: as §1

The target in the next assay is T14, d (DOP) (h) (Homo sapiens, UniProt P41143).
T14 construct: gene OPRD1
T14 sequence (P41143 whole entry): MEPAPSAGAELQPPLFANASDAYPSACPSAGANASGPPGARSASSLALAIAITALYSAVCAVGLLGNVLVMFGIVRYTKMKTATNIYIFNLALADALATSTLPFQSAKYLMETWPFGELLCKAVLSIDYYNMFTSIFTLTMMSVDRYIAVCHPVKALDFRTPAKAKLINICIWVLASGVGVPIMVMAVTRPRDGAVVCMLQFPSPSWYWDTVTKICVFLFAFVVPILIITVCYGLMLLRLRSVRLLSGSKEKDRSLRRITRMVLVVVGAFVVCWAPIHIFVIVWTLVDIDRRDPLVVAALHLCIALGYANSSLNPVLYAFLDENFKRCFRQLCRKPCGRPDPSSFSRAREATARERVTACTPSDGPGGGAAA
The assay is described as follows: biochemical. Further details: CEREP panel radioligand binding displacement, % inhibition of control specific binding by 10 uM 2BAct. The note with it: Type=Agonist radioligand; read-out: % inhibition of Control specific binding. Here is the method: as §1

pEC50: −log10 of the molar value.

T2 sequence (P08908 whole entry): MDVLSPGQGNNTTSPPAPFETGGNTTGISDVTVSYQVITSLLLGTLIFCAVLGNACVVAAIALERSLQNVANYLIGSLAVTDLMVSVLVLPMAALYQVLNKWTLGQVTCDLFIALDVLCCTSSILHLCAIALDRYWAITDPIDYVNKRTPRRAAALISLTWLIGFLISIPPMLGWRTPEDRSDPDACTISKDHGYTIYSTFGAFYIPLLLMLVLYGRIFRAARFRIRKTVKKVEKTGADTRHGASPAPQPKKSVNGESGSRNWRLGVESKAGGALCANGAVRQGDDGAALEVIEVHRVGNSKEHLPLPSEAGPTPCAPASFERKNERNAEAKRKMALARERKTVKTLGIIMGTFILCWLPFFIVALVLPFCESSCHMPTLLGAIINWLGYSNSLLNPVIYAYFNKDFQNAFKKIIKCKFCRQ
T1 sequence (Q99LD9 whole entry): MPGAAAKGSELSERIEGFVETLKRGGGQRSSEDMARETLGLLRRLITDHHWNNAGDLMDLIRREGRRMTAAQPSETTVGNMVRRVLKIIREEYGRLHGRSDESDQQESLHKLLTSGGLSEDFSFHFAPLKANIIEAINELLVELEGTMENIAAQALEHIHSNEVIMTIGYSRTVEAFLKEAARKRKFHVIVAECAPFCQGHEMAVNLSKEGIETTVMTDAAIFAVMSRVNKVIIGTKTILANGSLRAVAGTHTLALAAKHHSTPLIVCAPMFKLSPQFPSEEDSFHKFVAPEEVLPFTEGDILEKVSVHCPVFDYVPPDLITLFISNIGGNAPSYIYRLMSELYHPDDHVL
T1 sequence (Q61749 2-524): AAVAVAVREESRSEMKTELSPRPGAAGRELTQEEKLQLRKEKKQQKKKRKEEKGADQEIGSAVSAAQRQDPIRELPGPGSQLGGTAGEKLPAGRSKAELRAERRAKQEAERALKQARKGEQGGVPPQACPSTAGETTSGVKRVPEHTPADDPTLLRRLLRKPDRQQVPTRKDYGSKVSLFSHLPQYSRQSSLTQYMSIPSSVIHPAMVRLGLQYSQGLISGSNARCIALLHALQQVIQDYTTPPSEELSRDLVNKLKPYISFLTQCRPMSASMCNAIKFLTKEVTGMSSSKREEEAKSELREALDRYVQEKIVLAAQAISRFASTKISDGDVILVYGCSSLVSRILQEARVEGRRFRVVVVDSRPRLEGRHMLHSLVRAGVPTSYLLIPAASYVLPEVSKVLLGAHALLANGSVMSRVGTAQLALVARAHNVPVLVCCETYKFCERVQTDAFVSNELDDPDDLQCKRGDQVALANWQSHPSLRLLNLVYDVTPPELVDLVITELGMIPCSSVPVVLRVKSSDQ
T1 sequence (Q99LC8 whole entry partner): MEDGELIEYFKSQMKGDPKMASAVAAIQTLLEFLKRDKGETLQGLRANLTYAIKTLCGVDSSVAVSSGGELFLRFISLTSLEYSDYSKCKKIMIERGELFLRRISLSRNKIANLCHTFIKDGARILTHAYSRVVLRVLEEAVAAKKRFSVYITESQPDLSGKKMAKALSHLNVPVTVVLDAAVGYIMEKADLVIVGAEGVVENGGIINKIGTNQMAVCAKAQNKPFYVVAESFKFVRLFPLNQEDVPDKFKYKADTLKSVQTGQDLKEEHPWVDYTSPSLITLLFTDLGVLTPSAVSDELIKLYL
T1 sequence (B1AUN2 1-452 partner): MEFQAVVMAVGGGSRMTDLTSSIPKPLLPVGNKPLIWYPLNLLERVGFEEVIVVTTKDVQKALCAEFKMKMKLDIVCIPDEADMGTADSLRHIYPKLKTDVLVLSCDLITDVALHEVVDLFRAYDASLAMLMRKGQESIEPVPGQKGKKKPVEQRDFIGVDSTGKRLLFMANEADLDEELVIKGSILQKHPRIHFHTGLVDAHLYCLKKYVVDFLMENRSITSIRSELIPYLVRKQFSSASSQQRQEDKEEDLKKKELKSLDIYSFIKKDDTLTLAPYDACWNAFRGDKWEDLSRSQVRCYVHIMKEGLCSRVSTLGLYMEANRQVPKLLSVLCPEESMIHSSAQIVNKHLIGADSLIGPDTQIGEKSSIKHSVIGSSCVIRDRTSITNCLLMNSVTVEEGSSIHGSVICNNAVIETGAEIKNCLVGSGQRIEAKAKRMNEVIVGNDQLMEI
T1 sequence (Q8CHW4 whole entry R191H partner): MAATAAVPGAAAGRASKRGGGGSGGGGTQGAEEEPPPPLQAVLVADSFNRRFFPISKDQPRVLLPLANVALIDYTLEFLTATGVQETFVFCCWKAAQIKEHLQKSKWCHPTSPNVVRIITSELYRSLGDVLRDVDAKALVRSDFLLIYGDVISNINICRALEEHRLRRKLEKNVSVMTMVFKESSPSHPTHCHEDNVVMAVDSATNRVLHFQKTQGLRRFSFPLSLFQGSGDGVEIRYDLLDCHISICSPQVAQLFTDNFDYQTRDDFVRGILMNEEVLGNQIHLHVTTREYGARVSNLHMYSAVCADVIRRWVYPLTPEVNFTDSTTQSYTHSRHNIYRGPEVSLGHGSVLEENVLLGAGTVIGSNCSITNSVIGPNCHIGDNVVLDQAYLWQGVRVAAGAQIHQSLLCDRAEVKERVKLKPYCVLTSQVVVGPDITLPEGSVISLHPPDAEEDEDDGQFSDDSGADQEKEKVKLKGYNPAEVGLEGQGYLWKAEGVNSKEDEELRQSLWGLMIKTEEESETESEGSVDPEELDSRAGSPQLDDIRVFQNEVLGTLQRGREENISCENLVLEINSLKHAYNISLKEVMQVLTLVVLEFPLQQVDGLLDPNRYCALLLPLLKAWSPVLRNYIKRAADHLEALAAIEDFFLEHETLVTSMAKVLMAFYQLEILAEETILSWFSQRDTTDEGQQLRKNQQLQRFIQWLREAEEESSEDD

The pEC50 is −log10 of the EC50, conventionally taken in molar units. A low value points to a high EC50. What is called inhibition is the relative decrease from the control value, in per cent. On eIF2B, `O=C(COc1ccc(Cl)c(F)c1)NC12CC(NC(=O)c3cnc(C(F)F)cn3)(C1)C2` [2BAct] had a pEC50 of 8.14. Besides, the inhibition at 10 µM at 5-HT1A (h) was 15.8%; on CCK1(CCKA) (h), 5.2%; on D1 (h), 5.9%; at EP2 (h), -4%; on GABA-A1 (h) (a1, b2, g2), -19.5%; on M5 (h), 11.8%. The inhibition at 10 µM on MT2 (ML1B) (h) is -2%; on PPARg (h), 19%; at UT (h) it was 5.8%; at VPAC1 (VIP1) (h) it was -9.7%; on Y1 (h), -17.4%; on a2A (h), -5.5%. Further, the inhibition at 10 µM at b2 (h) turned out to be 4.4%; at d (DOP) (h), 2.9%.
